# Laboratory results: article PMC9892005, “Principles of mitoribosomal small subunit assembly in eukaryotes” (Nature, 2022)
# Assays:
# METTL17 = target: T1, METTL17 (Homo sapiens, UniProt Q9H7H0); test: cryo-EM structure of native mtSSU assembly intermediates; type: binding; conditions: architectural cofactor; METTL17 bound to pre-mtSSU
# T1 construct: endogenous METTL17 with C-terminal linker-twinStrep-FLAG-10xHis-TEV-SPOT-3C-GFP tag, eluted with 3C protease
# T1 sequence (Q9H7H0 28-456): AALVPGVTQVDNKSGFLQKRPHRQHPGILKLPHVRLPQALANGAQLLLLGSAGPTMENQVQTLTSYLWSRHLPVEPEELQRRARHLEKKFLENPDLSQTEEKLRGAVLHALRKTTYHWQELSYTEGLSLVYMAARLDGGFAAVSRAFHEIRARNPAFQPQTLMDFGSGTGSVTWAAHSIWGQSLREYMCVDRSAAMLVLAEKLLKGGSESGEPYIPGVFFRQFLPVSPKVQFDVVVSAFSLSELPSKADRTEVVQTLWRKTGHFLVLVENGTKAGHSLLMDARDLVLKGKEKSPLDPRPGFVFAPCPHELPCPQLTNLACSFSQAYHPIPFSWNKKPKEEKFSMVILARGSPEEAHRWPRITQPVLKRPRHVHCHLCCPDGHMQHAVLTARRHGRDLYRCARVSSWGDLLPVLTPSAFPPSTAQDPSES
# Rsm22 = target: T2, Rsm22 (Saccharomyces cerevisiae, UniProt P36056); test: as above; type: binding; conditions: architectural cofactor; Rsm22 bound to pre-mtSSU
# T2 construct: native yeast mtSSU assembly intermediates; untagged Rsm22 in Ccm1-purified states 1 and 2, C-terminal linker-TEV-alfa-3C-mCherry tag (cleaved) in state 3
# T2 sequence (P36056 16-628): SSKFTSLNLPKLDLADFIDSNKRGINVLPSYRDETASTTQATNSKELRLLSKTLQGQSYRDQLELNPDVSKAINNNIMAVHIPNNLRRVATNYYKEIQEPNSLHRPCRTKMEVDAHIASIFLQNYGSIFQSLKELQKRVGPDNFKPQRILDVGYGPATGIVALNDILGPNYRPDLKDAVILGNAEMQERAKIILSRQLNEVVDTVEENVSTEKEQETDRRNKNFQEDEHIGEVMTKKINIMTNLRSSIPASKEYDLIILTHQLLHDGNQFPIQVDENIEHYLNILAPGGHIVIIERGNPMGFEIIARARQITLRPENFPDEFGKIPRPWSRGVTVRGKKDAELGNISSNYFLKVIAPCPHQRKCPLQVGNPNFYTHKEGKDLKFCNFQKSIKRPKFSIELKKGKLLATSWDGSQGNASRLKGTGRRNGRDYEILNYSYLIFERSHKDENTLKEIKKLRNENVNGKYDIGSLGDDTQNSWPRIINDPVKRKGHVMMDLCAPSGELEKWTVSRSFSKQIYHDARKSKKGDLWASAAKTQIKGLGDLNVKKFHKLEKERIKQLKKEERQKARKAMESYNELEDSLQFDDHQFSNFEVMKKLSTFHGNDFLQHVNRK
smiles,measurement,setting,value
[S]12[Fe]3[S]4[Fe]1[S]1[Fe]2[S]3[Fe]41 [Fe4S4 cluster],cryo-EM structure of native mtSSU assembly intermediates,METTL17,identified an Fe4S4 cluster as an architectural cofactor of the Rsm22 (METTL17) protein family
same,cryo-EM structure of native mtSSU assembly intermediates,Rsm22,identified an Fe4S4 cluster as an architectural cofactor of the Rsm22 (METTL17) protein family
